Data from PubChem BioAssay (NCI).
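Briefly, cells in 96-well plates were exposed to five compound concentrations for 48 h, and endpoints were estimated by linear interpolation. TGI is the concentration that stops growth completely.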

Tests used:
Assay in all cases: NCI-60 cell line screen, 48 h
[1] = tested on: NCI/ADR-RES ovarian
[2] = tested on: CCRF-CEM leukemia
[3] = tested on: HCT-15 colon
[4] = tested on: OVCAR-4 ovarian
[5] = tested on: IGROV1 ovarian
[6] = tested on: HOP-62 NSCLC
[7] = tested on: COLO 205 colon
[8] = tested on: HT29 colon
[9] = tested on: SNB-75 CNS
[10] = tested on: M14 melanoma
[11] = tested on: SK-MEL-2 melanoma
[12] = tested on: SF-268 CNS
[13] = tested on: A549 NSCLC
[14] = tested on: OVCAR-5 ovarian
[15] = tested on: HS 578T breast
[16] = tested on: LOX IMVI melanoma
[17] = tested on: HCC-2998 colon
[18] = tested on: RXF 393 renal

| SMILES | TGI [1] [µM] | TGI [2] [µM] | TGI [3] [µM] | TGI [4] [µM] | TGI [5] [µM] | TGI [6] [µM] | TGI [7] [µM] | TGI [8] [µM] | TGI [9] [µM] | TGI [10] [µM] | TGI [11] [µM] | TGI [12] [µM] | TGI [13] [µM] | TGI [14] [µM] | TGI [15] [µM] | TGI [16] [µM] | TGI [17] [µM] | TGI [18] [µM] |
| --- | --- | --- | --- | --- | --- | --- | --- | --- | --- | --- | --- | --- | --- | --- | --- | --- | --- | --- |
| COC(=O)c1c2c(cc3c1CC1(C3)Cc3cc4c(c(C(C)=O)c3C1)CCC4)C=CC2 (stereo not given) | > 31.6 | > 31.6 | > 31.6 | > 31.6 | > 31.6 | > 31.6 | > 31.6 | > 31.6 | 31.2 | > 31.6 | > 31.6 | > 31.6 | > 31.6 | > 31.6 | > 31.6 |  |  |  |
| COC(=O)[C@@]1(Cc2ccc(O)cc2)C[C@@H]2Cc3ccccc3N2N1 | > 100 |  | > 100 | > 100 | > 100 | > 100 | > 100 | > 100 |  | > 100 | 92.8 | > 100 | > 100 | > 100 | > 100 | > 100 |  |  |
| O=C(OC[C@H]1C[C@H]2C(=O)CCC[C@H]2O1)c1ccccc1 | > 100 | > 100 | > 100 | > 100 | > 100 | > 100 | > 100 | > 100 | > 100 | > 100 | > 100 | > 100 | > 100 | > 100 | > 100 | > 100 |  |  |
| CCOC(=O)/C(N=Nc1ccc(-n2c(C)nc3ccc(Br)cc3c2=O)cc1)=C(/C)O | > 100 | > 100 | > 100 |  | > 100 | > 100 | > 100 | > 100 | 86.7 | > 100 | > 100 | > 100 | > 100 | > 100 | 70.7 | > 100 |  |  |
| c1cnc2c(c1)-n1cccc1C1(CCSC1)NN2 (stereo not given) |  | > 100 | > 100 | > 100 |  | > 100 | > 100 | > 100 | > 100 | > 100 | > 100 | > 100 | > 100 | > 100 |  | > 100 | > 100 |  |
| Cc1cc2oc(-c3ccccc3)c(C)c(=O)c2c2c1OC(C)(C)S2 |  | > 100 | > 100 | > 100 | > 100 | > 100 | > 100 | > 100 | > 100 | > 100 | > 100 | > 100 | > 100 | > 100 |  | > 100 | > 100 | > 100 |
| Cc1ccc(N=C2S/C(=C3/CCC=C3N3CCOCC3)N(c3ccc(Cl)cc3)C2=Nc2ccc(C)cc2)cc1 |  |  | > 100 |  | > 100 | > 100 | > 100 | > 100 | > 100 | > 100 | > 100 |  | > 100 | > 100 | > 100 |  | > 100 | > 100 |
| CCOC(=O)C1C(c2ccc(O)c(OC)c2)c2c([nH][nH]c2=O)CC1(C)O (stereo not given) | > 100 | > 100 | > 100 | > 100 | > 100 | > 100 | > 100 | > 100 | > 100 | > 100 | > 100 | > 100 | > 100 | > 100 | > 100 | > 100 | > 100 |  |
| Cc1ccc(NCC(=O)N2CC(=O)Nc3ccccc32)cc1 |  | > 100 | > 100 | > 100 |  | > 100 | > 100 | > 100 | > 100 | > 100 | > 100 | > 100 | > 100 | > 100 |  | > 100 | > 100 | > 100 |
| CCOC(=O)CSc1nnc(CSc2nc(-c3ccccc3)c(-c3ccccc3)[nH]2)n1-c1ccccc1 | > 100 | > 100 | > 100 | 48.3 | > 100 | > 100 | > 100 | > 100 | > 100 | > 62.4 | > 31.6 | > 81.3 | > 100 | > 100 |  | > 100 | 37.1 | 39.5 |
| NNC1=N/C(=C\c2ccco2)C(=O)N1 | > 100 |  | > 100 | > 100 | > 100 | > 100 | > 100 | > 100 | > 100 | > 100 | > 100 |  | > 100 | > 100 |  | > 100 | > 100 |  |
| CC1(C)OCC(C2OC(OC(=O)c3ccc([N+](=O)[O-])cc3)C3OC(C)(C)OC23)O1 (stereo not given) | > 100 | > 100 | > 100 | > 100 | > 100 | > 100 | > 100 | > 100 | 54.3 | > 100 | > 100 | > 100 | > 100 | > 100 |  | > 100 | > 100 | > 100 |
| Cc1ccc2c(c1)C1(OC(=O)c3ccccc31)c1ccc(F)cc1O2 (stereo not given) |  | > 100 |  | > 100 | > 100 | > 100 | > 100 | > 100 |  | > 100 | > 100 | > 100 | > 100 | > 100 |  | > 100 | > 100 |  |
| CC(=O)OC1CC2(C)OC(Cc3ccccc32)O1 (stereo not given) |  | > 100 |  |  | > 100 | > 100 | > 100 | > 100 | > 100 | > 100 | > 100 | > 100 | > 100 |  |  | > 100 | > 100 | > 100 |
| COc1ccc(N2C(=O)c3c(c4[nH]c5ccc(OC)cc5c4c4ccc(C(C)(C)C)cc34)C2=O)cc1 |  | > 100 | > 100 | > 100 | > 100 | > 100 | > 100 | > 100 | > 100 | > 100 | > 100 | > 100 | > 100 | > 100 |  |  | > 100 |  |
| Cc1ccc(S(=O)(=O)N2c3ccccc3[C@H]3CCC=C[C@H]32)cc1 |  | > 87.2 | > 69.1 | > 100 | > 100 | 67.4 | 24.6 | 19.2 | 42.5 | 43.3 | 39.2 | > 76.1 | > 100 | > 100 | 86.3 | 56.5 | > 76.5 | 19 |
| S=C(N/N=C/c1ccccn1)Nc1ccc(Cl)cc1 |  | 1.92 | > 100 | > 100 | 25.6 | 17.4 | > 100 | > 100 | 8.74 |  | > 100 | > 45.7 | > 65.4 | > 100 | > 67.2 | > 35.3 | > 57.7 |  |
| COc1cccc(CCNc2c(C#N)c3nc4ccccc4n3c3ccccc23)c1 |  | > 100 | > 100 | > 100 | > 100 | > 100 | > 47.4 | > 100 | > 58 | > 100 | > 100 | > 100 | > 100 | > 100 | > 27.2 | > 100 | > 100 | > 100 |
| Cc1cc(=O)[nH]c2cc(NC(=O)C(CCCN=C(N)N)NC(=O)OCc3ccccc3)ccc12 (stereo not given) | > 100 | > 100 | > 100 | > 100 | > 100 | > 100 | > 100 | > 100 | > 100 | > 100 | > 100 | > 100 | > 100 | > 100 | > 100 | > 100 | > 100 |  |
| Cc1ccc(C2SCC(=O)N2c2ccc(-c3ccc(-n4c(-c5ccccc5)nc5ccccc5c4=O)cc3)cc2)cc1 (stereo not given) | > 100 | > 100 | > 100 | > 100 | > 100 | > 100 | > 100 | > 100 |  | > 100 | > 100 | > 100 | > 100 | > 100 | > 100 | > 100 | > 100 |  |
| CSc1cc(Br)ccc1-n1c(C(=O)c2ccccc2)c(SC)n(-c2ccccc2)c1=O | > 100 |  | > 100 | > 100 | > 100 | > 100 | > 100 | > 100 | > 100 | > 100 |  | > 100 | > 100 | > 100 | > 100 | > 100 | > 100 |  |
| O=c1oc2ccccc2c(O)c1/C=N/C(=S)NCc1ccccc1 | > 100 |  | > 100 | > 100 | > 100 | > 100 | > 100 | > 100 | > 100 | > 100 | > 100 |  | > 100 | > 100 |  | > 100 | > 100 |  |
| CC(Oc1ccc(OCC2CCCCC2)cc1)C(=O)NCCO (stereo not given) |  | > 100 | > 100 | > 100 | > 100 |  |  | > 100 | > 100 | > 100 | > 100 | > 100 | > 100 |  |  | > 100 |  | > 100 |
| COC1(OC)N=C(N)C2(C#N)C3(C(=O)N(C(C)C)N=C3C)C12C#N (stereo not given) | > 100 | > 100 | > 100 | > 100 | > 100 | > 100 | > 100 | > 100 | > 100 | > 100 | > 100 | > 100 | > 100 | > 100 |  |  | > 100 | > 100 |
| O=c1c(C2=NCCC2)c(-c2ccc[nH]2)[nH]n1-c1ccccc1 | > 100 | > 100 | > 100 | > 100 |  |  | > 100 | > 100 | > 100 | > 100 | > 100 | > 100 | > 100 | > 100 |  | > 100 |  | > 100 |
| COC(=O)C(Cc1ccccc1)NP(=O)(O)OCC1OC(n2cc(I)c(=O)[nH]c2=O)CC1O (stereo not given) | > 100 | > 100 | > 100 | > 100 | > 100 | > 100 | > 100 | > 100 | > 100 | > 100 |  | > 100 | > 100 |  | > 100 | > 100 |  |  |
| COc1cc(CNC2=NCCC2)cc(OC)c1OC | > 100 | > 100 | > 100 | > 100 | > 100 | > 100 | > 100 | > 100 | > 100 | > 100 |  | > 100 | > 100 | > 100 |  |  | > 100 | > 100 |
| CCC12CCCNC1c1c(n(C)c3ccccc13)C(C(=O)OC)C2 (stereo not given) |  | > 275 | > 275 |  | > 275 | > 275 | 82.5 | 114 |  |  | 259 | > 275 | > 275 | 208 |  | > 275 | > 275 | 153 |
| COC(=O)c1ccc(NCc2c(O)ccc(O)c2Br)cc1Cl | 44.9 | > 100 | 35.9 | 44.2 | 28.7 |  | 33.4 | 40.2 | 70.2 | 33.3 | 40.8 | 41.2 | > 100 | 28.6 | 95.4 | 27.3 | 39.4 |  |
| Cc1cc(C)n2c(-c3ccccc3)c(C)cc2n1 |  | 43.6 | > 100 | > 100 | > 100 | > 100 | > 100 | > 100 | 59.8 | > 100 | > 100 | > 100 | > 100 | > 100 |  | > 100 | > 100 | > 100 |
